Test results: patent US10519153B2, “Fused imidazo-piperidine JAK inhibitors” (THERAVANCE BIOPHARMA R&D IP, LLC, priority 2017, dated 2019)

System: IL-6 stimulated pSTAT3 in CD3+ T cells
Assay: Inhibition of IL-6 stimulated pSTAT3 in CD3+ T cells
Assay type: cell-based, human
Description: Assay 10: Cellular JAK Potency Assay: Inhibition of IL-6 Stimulated pSTAT3 in CD3+ T Cells
A protocol analogous to that of Assay 9 was used to determine the potency of the test compound for inhibition of interleuken-6 (IL-6) stimulated STAT3 phosphorylation. An Alexa Fluor 647 conjugated anti-pSTAT3 antibody (pY705, Clone 4/P, BD Biosciences) was used to detect STAT3 phosphorylation.

Row | SMILES | inhibition of IL-6 signaling (in words)
1 | CCCN1Cc2[nH]c(-c3n[nH]c4cc(-c5cc(F)c(O)cc5CC)ccc34)nc2C[C@H]1C(=O)N1C[C@@H]2C[C@H]1CN2C [Example 1, ((S)-2-(6-(2-ethyl-5-fluoro-4-hydroxyphenyl)-1H-indazol-3-yl)-5-propyl-4,5,6,7-tetrahydro-3H-imidazo[4,5-c]pyridin-6-yl)((1S,4S)-5-methyl-2,5-diazabicyclo-[2.2.1]heptan-2-yl)methanone] | inhibit IL-6 signaling
2 | CCc1cc(O)c(F)cc1-c1ccc2c(-c3nc4c([nH]3)CN(C(C)C)[C@H](C(=O)N3CC[C@H](N(C)C)C3)C4)n[nH]c2c1 [Example 3] | inhibit IL-6 signaling
